Measured values published in ChEMBL document CHEMBL4507291 (2021).

Key:
[1] = biological target: Protein kinase C gamma type (Homo sapiens) (UniProt P05129); assay: PRKCG (PKC gamma) Kinase screen; settings: Compound concentration 1.0 uM
[2] = biological target: Serine/threonine-protein kinase 33 (Homo sapiens) (UniProt Q9BYT3); assay: STK33 Kinase screen; settings: Compound concentration 1.0 uM
[3] = organism: Homo sapiens; assay: Chemokine CCR1 Eurofins-Panlabs radioligand binding assay; set-up: ligand concentration 0.1 nM; settings: Compound concentration 10.0 uM
[4] = biological target: Prostaglandin E2 receptor EP1 subtype (Homo sapiens) (UniProt P34995); assay: Prostanoid EP1 Eurofins-Panlabs radioligand binding assay; set-up: ligand concentration 1 nM; settings: Compound concentration 10.0 uM
[5] = biological target: T1, Serine/threonine-protein kinase 3 (Homo sapiens) (UniProt Q13188); assay: STK3 (MST2) Kinase screen; settings: Compound concentration 1.0 uM
T1 sequence (whole entry): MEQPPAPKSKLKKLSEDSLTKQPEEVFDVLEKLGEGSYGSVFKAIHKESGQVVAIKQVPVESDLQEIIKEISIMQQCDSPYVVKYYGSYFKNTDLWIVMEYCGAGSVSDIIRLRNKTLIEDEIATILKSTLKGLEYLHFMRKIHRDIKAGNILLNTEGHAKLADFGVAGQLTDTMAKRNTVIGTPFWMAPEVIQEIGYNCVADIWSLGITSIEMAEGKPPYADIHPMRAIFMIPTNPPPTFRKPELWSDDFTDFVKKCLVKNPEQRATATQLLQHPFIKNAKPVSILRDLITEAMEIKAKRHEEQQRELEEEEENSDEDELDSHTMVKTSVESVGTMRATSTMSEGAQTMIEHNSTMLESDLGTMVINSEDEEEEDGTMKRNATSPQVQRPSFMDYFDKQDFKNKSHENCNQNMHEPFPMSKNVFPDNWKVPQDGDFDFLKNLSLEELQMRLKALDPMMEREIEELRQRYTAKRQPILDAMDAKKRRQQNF

[6] = biological target: T2, Tyrosine-protein kinase Tec (Homo sapiens) (UniProt P42680); assay: TEC Kinase screen; settings: Compound concentration 1.0 uM
T2 sequence (whole entry): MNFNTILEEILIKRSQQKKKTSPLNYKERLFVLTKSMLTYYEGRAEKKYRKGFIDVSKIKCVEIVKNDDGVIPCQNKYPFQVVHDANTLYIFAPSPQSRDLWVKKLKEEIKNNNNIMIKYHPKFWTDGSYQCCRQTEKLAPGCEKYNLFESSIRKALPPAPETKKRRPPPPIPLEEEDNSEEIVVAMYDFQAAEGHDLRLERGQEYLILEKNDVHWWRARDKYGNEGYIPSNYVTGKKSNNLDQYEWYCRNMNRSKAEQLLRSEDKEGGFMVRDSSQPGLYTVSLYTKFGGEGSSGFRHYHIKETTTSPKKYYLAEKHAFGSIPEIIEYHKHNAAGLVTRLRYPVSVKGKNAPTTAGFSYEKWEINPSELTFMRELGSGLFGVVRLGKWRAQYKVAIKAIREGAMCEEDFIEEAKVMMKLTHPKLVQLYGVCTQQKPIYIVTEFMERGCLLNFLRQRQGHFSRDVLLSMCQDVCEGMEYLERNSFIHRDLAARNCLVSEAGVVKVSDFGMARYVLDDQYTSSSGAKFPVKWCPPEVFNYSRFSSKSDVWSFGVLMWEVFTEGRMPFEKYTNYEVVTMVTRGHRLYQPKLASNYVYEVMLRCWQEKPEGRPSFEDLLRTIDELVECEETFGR

[7] = biological target: Mitogen-activated protein kinase 3 (Homo sapiens) (UniProt P27361); assay: MAPK3 (ERK1) Kinase screen; settings: Compound concentration 1.0 uM
Sequence of Mitogen-activated protein kinase 3 (Homo sapiens) (P27361 whole entry): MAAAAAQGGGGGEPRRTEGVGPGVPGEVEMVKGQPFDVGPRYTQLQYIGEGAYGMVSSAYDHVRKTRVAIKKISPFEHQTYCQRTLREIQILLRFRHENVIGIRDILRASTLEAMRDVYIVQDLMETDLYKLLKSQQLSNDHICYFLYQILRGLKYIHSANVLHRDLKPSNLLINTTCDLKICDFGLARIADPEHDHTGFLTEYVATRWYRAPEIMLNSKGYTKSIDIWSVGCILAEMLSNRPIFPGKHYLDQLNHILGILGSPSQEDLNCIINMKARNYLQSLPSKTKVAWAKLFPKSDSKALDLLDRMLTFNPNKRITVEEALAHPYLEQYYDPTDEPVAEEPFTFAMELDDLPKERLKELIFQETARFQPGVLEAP

[8] = biological target: Retinoic acid receptor RXR-alpha (Homo sapiens) (UniProt P19793); assay: Retinoid X Receptor RXRalpha Eurofins-Panlabs radioligand binding assay; settings: Compound concentration 10.0 uM
Sequence of Retinoic acid receptor RXR-alpha (Homo sapiens) (P19793 whole entry): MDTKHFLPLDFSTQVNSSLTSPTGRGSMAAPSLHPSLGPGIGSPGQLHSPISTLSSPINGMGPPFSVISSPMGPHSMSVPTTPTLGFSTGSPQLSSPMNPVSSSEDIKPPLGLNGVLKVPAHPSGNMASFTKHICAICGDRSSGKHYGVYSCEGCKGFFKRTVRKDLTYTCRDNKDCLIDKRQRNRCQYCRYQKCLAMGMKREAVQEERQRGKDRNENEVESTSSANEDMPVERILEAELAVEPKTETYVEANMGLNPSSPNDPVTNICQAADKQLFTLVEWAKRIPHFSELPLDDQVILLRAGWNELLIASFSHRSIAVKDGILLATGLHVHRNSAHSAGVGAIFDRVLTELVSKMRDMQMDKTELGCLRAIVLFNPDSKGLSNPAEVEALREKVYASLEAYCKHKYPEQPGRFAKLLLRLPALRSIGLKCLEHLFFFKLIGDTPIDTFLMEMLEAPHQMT

[9] = biological target: Platelet-activating factor receptor (Homo sapiens) (UniProt P25105); assay: Inhibition of Platelet Activating Factor (PAF) at 10 µM in the Eurofins-Panlabs radioligand binding assay (Eurofins_assay_265010); settings: Compound concentration 10.0 uM
Sequence of Platelet-activating factor receptor (Homo sapiens) (P25105 whole entry): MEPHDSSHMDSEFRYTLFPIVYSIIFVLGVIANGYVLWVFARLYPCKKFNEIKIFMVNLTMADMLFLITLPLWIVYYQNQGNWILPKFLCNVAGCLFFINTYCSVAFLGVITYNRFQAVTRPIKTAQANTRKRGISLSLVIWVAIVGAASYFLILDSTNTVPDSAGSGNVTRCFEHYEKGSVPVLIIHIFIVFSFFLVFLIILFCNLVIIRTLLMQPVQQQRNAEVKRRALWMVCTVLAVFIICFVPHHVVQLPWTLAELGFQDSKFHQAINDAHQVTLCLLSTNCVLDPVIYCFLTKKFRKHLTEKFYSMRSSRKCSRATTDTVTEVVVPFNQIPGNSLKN

[10] = biological target: T3, cAMP-dependent protein kinase catalytic subunit PRKX (Homo sapiens) (UniProt P51817); assay: PRKX Kinase screen; settings: Compound concentration 1.0 uM
T3 sequence (whole entry): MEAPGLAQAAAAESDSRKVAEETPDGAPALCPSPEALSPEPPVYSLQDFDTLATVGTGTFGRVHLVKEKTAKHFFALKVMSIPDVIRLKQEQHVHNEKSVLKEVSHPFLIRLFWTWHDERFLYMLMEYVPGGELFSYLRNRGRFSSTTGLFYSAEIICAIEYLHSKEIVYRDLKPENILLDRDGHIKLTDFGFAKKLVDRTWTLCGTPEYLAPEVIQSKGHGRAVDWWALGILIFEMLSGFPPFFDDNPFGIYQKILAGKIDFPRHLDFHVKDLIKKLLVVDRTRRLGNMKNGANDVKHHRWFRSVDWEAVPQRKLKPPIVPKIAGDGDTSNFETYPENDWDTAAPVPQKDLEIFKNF

[11] = biological target: Dual specificity tyrosine-phosphorylation-regulated kinase 4 (Homo sapiens) (UniProt Q9NR20); assay: DYRK4 Kinase screen; settings: Compound concentration 1.0 uM
Sequence of Dual specificity tyrosine-phosphorylation-regulated kinase 4 (Homo sapiens) (Q9NR20 whole entry): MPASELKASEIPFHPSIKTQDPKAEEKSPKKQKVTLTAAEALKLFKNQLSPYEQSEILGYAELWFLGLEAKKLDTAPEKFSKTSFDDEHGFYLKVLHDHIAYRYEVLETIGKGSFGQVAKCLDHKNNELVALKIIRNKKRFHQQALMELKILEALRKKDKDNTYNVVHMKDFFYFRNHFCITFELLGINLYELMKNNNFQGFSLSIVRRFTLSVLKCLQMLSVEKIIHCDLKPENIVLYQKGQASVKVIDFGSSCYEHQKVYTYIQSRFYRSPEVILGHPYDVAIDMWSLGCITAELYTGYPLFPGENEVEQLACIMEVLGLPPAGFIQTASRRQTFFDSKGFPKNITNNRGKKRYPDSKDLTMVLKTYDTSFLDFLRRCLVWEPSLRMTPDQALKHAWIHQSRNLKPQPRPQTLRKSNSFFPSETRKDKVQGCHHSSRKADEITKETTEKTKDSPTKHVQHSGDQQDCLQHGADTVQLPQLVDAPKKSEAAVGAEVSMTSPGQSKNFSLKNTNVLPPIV

[12] = biological target: T4, Muscarinic acetylcholine receptor M5 (Homo sapiens) (UniProt P08912); assay: Inhibition of Muscarinic M5 at 10 µM in the Eurofins-Panlabs radioligand binding assay (Eurofins_assay_253010); set-up: ligand concentration 0.8 nM; settings: Compound concentration 10.0 uM
T4 sequence (whole entry): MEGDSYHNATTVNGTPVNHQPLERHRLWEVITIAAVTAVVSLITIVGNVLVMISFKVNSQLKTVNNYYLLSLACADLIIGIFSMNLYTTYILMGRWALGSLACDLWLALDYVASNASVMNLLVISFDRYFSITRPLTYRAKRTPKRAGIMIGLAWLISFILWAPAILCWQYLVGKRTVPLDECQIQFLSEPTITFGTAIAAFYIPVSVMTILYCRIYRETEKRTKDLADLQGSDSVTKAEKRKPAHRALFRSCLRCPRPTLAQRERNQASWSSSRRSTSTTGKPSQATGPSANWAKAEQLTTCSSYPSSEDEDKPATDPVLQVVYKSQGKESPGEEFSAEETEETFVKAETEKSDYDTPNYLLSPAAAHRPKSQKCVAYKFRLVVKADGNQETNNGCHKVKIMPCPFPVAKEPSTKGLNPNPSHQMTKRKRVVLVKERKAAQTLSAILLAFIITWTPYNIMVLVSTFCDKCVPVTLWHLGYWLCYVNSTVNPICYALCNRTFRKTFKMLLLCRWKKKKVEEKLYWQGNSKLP

[13] = biological target: MAP/microtubule affinity-regulating kinase 3 (Homo sapiens) (UniProt P27448); assay: MARK3 Kinase screen; settings: Compound concentration 1.0 uM
Sequence of MAP/microtubule affinity-regulating kinase 3 (Homo sapiens) (P27448 whole entry, looked up): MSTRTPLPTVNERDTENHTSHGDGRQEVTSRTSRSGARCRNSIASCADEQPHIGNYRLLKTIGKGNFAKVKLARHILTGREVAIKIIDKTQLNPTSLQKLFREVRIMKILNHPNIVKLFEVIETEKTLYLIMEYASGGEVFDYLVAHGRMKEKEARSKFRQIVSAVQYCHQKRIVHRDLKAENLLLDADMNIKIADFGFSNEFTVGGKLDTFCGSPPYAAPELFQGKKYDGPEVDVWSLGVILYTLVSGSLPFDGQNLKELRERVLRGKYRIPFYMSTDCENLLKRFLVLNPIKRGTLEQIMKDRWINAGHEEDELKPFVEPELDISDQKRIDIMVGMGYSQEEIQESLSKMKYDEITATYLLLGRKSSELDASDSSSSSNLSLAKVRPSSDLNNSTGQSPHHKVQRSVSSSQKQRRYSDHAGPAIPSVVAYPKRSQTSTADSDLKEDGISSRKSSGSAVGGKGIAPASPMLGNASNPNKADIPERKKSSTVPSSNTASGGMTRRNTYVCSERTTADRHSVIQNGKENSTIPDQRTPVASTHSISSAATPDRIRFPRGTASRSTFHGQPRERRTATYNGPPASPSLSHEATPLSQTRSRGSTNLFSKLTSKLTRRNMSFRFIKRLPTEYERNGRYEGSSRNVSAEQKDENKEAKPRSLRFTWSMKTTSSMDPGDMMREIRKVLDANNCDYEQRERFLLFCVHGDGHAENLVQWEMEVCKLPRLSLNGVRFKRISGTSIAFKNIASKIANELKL

[14] = system: Mast/stem cell growth factor receptor Kit (Homo sapiens), P10721 [T670I]; assay: KIT T670I Kinase screen; settings: Compound concentration 1.0 uM
Sequence of Mast/stem cell growth factor receptor Kit (Homo sapiens), P10721 [T670I] (P10721 whole entry T670I): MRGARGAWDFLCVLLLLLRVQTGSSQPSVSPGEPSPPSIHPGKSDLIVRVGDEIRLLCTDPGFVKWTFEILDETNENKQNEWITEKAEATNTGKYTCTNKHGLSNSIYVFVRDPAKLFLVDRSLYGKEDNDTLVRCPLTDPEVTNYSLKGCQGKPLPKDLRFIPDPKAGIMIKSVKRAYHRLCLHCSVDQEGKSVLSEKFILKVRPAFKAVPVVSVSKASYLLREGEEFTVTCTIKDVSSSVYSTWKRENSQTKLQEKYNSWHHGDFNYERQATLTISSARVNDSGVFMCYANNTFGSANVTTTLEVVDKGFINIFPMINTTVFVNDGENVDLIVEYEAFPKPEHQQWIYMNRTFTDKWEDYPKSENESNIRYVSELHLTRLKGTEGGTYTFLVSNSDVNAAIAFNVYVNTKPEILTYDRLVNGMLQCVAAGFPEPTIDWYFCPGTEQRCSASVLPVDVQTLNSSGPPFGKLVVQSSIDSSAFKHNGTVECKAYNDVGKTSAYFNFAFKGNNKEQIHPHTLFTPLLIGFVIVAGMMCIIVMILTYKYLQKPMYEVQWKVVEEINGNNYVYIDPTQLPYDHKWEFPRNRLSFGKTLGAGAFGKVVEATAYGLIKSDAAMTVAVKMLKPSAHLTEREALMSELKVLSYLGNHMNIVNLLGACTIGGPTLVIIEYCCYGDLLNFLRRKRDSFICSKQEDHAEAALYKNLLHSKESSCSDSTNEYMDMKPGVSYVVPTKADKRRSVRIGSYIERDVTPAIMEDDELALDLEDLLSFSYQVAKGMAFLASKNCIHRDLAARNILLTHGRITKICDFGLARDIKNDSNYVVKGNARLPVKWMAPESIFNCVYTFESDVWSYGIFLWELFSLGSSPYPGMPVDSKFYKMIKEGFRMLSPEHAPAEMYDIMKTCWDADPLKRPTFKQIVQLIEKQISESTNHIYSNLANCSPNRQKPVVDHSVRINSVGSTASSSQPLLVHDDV

[15] = biological target: Adenosine Transporter (Cavia porcellus) (UniProt H0V4R7+H0UUG1+H0V3Z5); assay: (§1) Inhibition of Transporter, Adenosine at compound concentration of 10.0 uM in the Eurofins-Panlabs radioligand binding assay (Eurofins_assay_202000); format: protein assay; set-up: ligand concentration 0.5 nM, non-specific ligand with concentration 5 uM Nitrobenzylthioinosine, incubation time 30 min, incubation temperature 25 C
[16] = biological target: Adenosine Transporter (Cavia porcellus, UniProt H0V4R7+H0UUG1+H0V3Z5); assay: as §1; format: protein assay; set-up: ligand concentration 0.5 nM, non-specific ligand with concentration 5 uM Nitrobenzylthioinosine, incubation time 30 min, incubation temperature 25 C

Sequence of Serine/threonine-protein kinase 33 (Homo sapiens) (Q9BYT3 whole entry, looked up): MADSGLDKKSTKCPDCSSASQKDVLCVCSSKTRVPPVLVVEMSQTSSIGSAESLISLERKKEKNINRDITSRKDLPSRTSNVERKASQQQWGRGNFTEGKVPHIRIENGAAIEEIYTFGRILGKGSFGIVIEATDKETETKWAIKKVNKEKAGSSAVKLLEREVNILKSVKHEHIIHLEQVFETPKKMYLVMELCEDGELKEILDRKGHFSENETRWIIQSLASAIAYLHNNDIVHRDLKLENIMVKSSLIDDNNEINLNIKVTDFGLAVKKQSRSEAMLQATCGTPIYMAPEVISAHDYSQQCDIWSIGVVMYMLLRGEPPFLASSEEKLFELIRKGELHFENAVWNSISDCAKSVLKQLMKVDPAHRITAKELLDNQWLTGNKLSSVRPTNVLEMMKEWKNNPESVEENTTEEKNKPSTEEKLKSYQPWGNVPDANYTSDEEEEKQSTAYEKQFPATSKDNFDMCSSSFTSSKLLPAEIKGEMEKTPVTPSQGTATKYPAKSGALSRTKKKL

Compound C[C@@H]1CN(c2cc(-c3n[nH]c4ccc(OC5(C)CC5)cc34)ncn2)C[C@H](C)O1 [MLi-2] has an inhibition [1] of 1.24%, an inhibition [2] of 24.3% and an inhibition [3] of -3%. The inhibition [4] was 16%, the inhibition [5] was 11.9% and the inhibition [6] was -2.1%. It also gave an inhibition [7] of 18.7%, an inhibition [8] of 4% and an inhibition [9] of 33%. The inhibition [10] was 1.54%, the inhibition [11] was 1.74% and the inhibition [12] was -8%. The inhibition [13] was 1.57%, the inhibition [14] was -0.692% and the inhibition ([15]; Compound concentration 0.01 uM) was 2%. For the same compound, the inhibition ([15]; Compound concentration 0.1 uM) was -1%, the inhibition ([15]; Compound concentration 1.0 uM) was 11% and the inhibition ([15]; Compound concentration 10.0 uM) was 51%. The IC50 [16] was 9.7 µM and the Ki [16] was 3.32 µM.
